Measurements taken from paper PMC6689897, “Drugging an undruggable pocket on KRAS” (Proceedings of the National Academy of Sciences of the …, 2019).

Experiments:
NCI-H358 cells = assay: RAS GTP detection (Ras G-LISA activation assay); format: cell-based, human; conditions: for steady-state RAS GTP levels: high growth factor conditions; for formation of GTP-loaded KRAS / RAS GTP levels: starved 24 h low serum, 2 h compound, then EGF
Experimental: When we incubated NCI-H358 cells with 50 µM 1 for 1 h, as previously observed, no change in GTP-KRAS was observed. In contrast, 20 µM ARS-1620 caused an 80% reduction of the GTP-bound RAS pool. When the 2 compounds were combined, only a 30% reduction of GTP-RAS was observed, which is in line with inhibiting the binding of GAPs with KRAS (Fig. 6D). […]
332 RAS GTP detection (Ras G-LISA Activation assay):
333 Ras-GTP levels were analyzed using a Ras G-LISA assay kit (Cytoskeleton Inc.,
335 600.000 cells were seeded in 6 wells and grown to 70% confluence. Cells were washed
337 provided protease inhibitor cocktail. Lysates were quickly frozen in liquid nitrogen
338 and stored at -80°C until further usage. After normalizing protein concentration, 40µg
339 of protein was added in duplicates to wells of the Ras G-LISA plate coated with Ras
340 GTP-binding protein and incubated at 4°C for 30 minutes while shaking at 400rpm.
341 After washing, antigen presenting buffer was added for 2 minutes. To measure bound
342 Ras GTP levels, wells were subsequently incubated with an anti-Ras primary antibody
343 (1:50) followed by a HRP-labeled secondary antibody (1:500) and finally by adding a
344 HRP detection reagent. Absorbance was measured by 490nm using an EnSpire
345 Multimode Reader (Perkin Elmer). Background was determined by a negative control
346 well and subtracted from all samples. […]

GTP-KRASG12D::SOS1 = GTP-KRASG12D::SOS1 (Homo sapiens, UniProt P01116, G12D); assay: Alpha Screen PPI assay; format: biochemical; conditions: duplicate
Experimental: page 6: 217 The coordinates and structure factors of the structures have been deposited at the 218 Protein Data Bank with the accession codes PDB Code 6GJ5, 6GJ6, 6GJ7, 6GJ8. 219 220 Alpha Screen Assays 221 Measurements of various protein-protein interactions were performed using the Alpha 222 Screen technology developed by Perkin Elmer. Recombinant RAS proteins (H-, […] RAS variants; all KRAS variants are based on KRAS isoform 4B (uniprot id P01116-2); 224 KRAS (G12D) 1-169, N-terminal 6His-tag, C-terminal avi-tag was from Xtal 225 BioStructures, Inc., KRAS (G12C) 1-169, C-terminal avi-tag, biotinylated, mutations: 226 C51S, C80L, C118S, NRAS(wt) 1-172, C-terminal avi-tag, biotinylated; HRAS(wt) 1- 227 166, C-terminal avi-tag, biotinylated). Biotinylation was performed in vitro with 228 recombinant BirA biotin-protein ligase as recommended by the manufacturer (Avidity 229 LLC, Aurora, Colorado, USA). Interacting proteins such as SOS1 (564-1049, N-terminal 230 GST-tag, TEV cleavage site), cRaf (1-303, N-terminal GST-tag, TEV cleavage site) and 231 PI3KA- RBD (160-317, N-term-HIS_GST-tag) were expressed as glutathione S 232 transferase (GST) fusions. […] Single oxygen induced fluorescence was 246 measured at an Enspire multimode plate reader (Perkin Elmer) according to the 247 manufacturer's recommendations. Data were analyzed using the GraphPad Prism data 248 software. […]

GTP-KRASG12D::SOS1, sequence (P01116 1-169 isoform P01116-2 G12D): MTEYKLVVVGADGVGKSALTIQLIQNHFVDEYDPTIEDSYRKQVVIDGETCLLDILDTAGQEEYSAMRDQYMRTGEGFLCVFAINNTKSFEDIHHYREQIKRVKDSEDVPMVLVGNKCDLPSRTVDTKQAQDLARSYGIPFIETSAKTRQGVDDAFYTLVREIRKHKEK

Structure (SMILES) | reduction of the GTP-bound RAS pool (NCI-H358 cells; 20 µM ARS-1620) | steady-state RAS GTP levels (NCI-H358 cells) | formation of GTP-loaded KRAS / RAS GTP levels (NCI-H358 cells) | IC50 (GTP-KRASG12D::SOS1) | reduction of GTP-RAS (NCI-H358 cells; 50 µM 1 combined with 20 µM ARS-1620) | change in GTP-KRAS (NCI-H358 cells; 50 µM 1 for 1 h)
C=CC(=O)N1CCN(c2ncnc3c(F)c(-c4c(O)cccc4F)c(Cl)cc23)CC1 [ARS-1620, reference compound] | 80% | strongly reduced | reduced the RAS GTP levels even below the DMSO control | > 10000 nM | – | –
Cn1cnc(Cn2ccc3ccc(CNCc4[nH]c5ccccc5c4[C@H]4NC(=O)c5ccc(O)cc54)cc32)c1 [Compound 1] | – | does not change | dose-dependent inhibition | 490 nM | 30% | no change
